Laboratory results: patent publication US5045558A, “N-substituted imidazoles and their use in pharmaceutical agents” (Schering Aktiengesellschaft, priority 1988, dated 1991)

How the values were obtained:
[1] = target: T1, 11beta-hydroxylase (Bos taurus, UniProt P15150); test: Test B: Determination of 11-beta Hydroxylase Activity (mitochondria from bovine suprarenals); format: biochemical; conditions: for IC50: Test B, bovine suprarenal mitochondria, substrate concentration corresponds to apparent Km; for selectivity of aromatase inhibition (in words): aromatase vs other enzyme systems (11beta-hydroxylase), in comparison with compound 1 / compounds known so far
T1 construct: mitochondria, obtained from bovine suprarenals; from tissue; host or cells: bovine suprarenals (adrenal glands), mitochondria
T1 sequence (P15150 25-503): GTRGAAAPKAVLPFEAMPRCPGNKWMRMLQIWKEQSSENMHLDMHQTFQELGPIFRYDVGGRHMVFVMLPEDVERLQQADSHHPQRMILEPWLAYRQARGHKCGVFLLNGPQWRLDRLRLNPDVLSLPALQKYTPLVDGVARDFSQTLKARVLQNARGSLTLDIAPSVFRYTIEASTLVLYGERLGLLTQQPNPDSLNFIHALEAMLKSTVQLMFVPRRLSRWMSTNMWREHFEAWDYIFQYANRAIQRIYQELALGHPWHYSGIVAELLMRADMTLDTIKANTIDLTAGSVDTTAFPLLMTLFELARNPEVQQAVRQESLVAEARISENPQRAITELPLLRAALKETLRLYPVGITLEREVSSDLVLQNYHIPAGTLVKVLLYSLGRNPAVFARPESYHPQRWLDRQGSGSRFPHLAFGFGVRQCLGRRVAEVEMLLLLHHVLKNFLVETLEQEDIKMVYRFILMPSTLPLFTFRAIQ
Method: Determination of 11-beta Hydroxylase Activity
The 11beta-hydroxylase activity is measured on mitochondria, obtained from bovine suprarenals. The reaction of [1,2-^3 H]-17alpha-hydroxy-11-deoxycorticosterone in cortisol is determined by thin-film chromatography of the resulting reaction products according to a method of Mitani et al (J. Biol. Chem 250, 8010-15 (1975)). The concentration of the examined compound is determined, in which the reaction is inhibited by 50%, and the substrate concentration corresponds to the apparent Km value.

[2] = target: T2, aromatase (Homo sapiens, UniProt P11511); test: Test A: Determination of Aromatase Activity (release of tritium-labeled water, human placenta microsomes); format: biochemical; conditions: for Ki: Test A, human placenta microsomes, Dixon method; for inhibition of aromatase (in words): in comparison with compound 1 / compounds known so far
T2 construct: microsomes obtained from human placenta; from tissue; host or cells: human placenta, microsomes
T2 sequence (P11511 1-503): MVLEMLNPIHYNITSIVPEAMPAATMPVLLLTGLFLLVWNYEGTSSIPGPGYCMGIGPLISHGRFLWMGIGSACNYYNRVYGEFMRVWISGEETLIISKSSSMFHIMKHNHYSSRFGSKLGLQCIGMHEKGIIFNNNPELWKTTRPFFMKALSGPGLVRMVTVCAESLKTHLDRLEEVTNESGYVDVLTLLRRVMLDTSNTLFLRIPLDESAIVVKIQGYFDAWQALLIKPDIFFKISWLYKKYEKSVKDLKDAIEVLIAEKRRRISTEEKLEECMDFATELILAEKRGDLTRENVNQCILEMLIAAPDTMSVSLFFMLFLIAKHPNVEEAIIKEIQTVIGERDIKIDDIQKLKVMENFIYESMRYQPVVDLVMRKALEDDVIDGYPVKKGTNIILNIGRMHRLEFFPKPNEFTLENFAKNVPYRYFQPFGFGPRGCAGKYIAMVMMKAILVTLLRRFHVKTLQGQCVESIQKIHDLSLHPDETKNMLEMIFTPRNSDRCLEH
Method: Determination of Aromatase Activity
The capabilities of compounds to inhibit the enzyme system of aromatase is tested on microsomes obtained from human placenta. The release of tritium-labeled water (^3 H2 O), which is released as reaction product in the aromatizing of (1beta-^3 H) androstrenedione to estrogen, is measured according to the methods of Thompson and Siiteri (J. Biol. Chem. Z49, 5364-72 (1974)). The corresponding inhibition values (K1, aromatase) are determined according to the method of Dixon (Biochem. J. 94, 760 (1965) by graphic determination of the application of 1/v against the inhibition concentration.

IC50 [1] [nM] | Ki [2] [nM] | selectivity of aromatase inhibition (in words) [1] | SMILES | inhibition of aromatase (in words) [2]
94 | 1.1 | – | CCCC(c1ccc(C#N)cc1)n1ccnc1 (stereo not shown) [Compound 1, 4-[1-(1-imidazolyl)-butyl]-benzonitrile, reference compound] | –
1500 | 0.42 | more selective effectiveness | CCCCCC(=O)c1ccc(C(CCC)n2ccnc2)cc1 (stereo not shown) [Compound 2, [4-[1-(1-Imidazolyl)-butyl]-phenyl]-pentylketone] | stronger inhibition actions of aromatase than compound 1
750 | 0.87 | more selective effectiveness | CCCCOC(=O)c1ccc(C(CCC)n2ccnc2)cc1 (stereo not shown) [Compound 3, 4-[1-(1-imidazolyl)-butyl]-benzoic acid butyl ester] | stronger inhibition actions of aromatase than compound 1
